Key:
Type in all cases: in vivo, mice
[1] = tested on: chronically undernourished mouse model; experiment: body length (nose-anus) growth in chronically undernourished mouse model; conditions: for growth rate / relative growth (% length gain, day 21 = 100%) / total height: male mice on low-protein, low-fat diet, day 21 to 56, oral, 5 times a week, vs placebo; for skeletal growth (linear or longitudinal): summary of examples 1 and 2, oral administration, juvenile mice on protein-deficient diet mimicking chronic undernutrition
Procedure: (§1) Conventional C57B1/6j laboratory mice have been bred in the Gnotobiology Laboratory for more than 10 generations. Mice have been maintained in IVC cages (Tecniplast, Italy), exposed to 12:12 h light-dark cycles, supplied with tap water and fed ad libitum with sterile diet V1124-300 (Ssniff Spezialdiaten GmbH) (irradiated −25 kGy, Bioster, Czech Republic). The mice have been mated and after delivery, the litter size was reduced to 6 pups per mother. On day 21, male mice have been weaned on the experimental low-protein, low-fat diet (3.5 kcal/gram, protein: 4.1 wt %, carbohydrate: 78 wt %, fat: 2 wt %) and regularly monitored until 56 days after birth (adult age in mice). Mice weaned on the low-protein, low-fat diet have been treated 5 times a week with placebo, composition A containing MDP or composition B containing Murabutide. At the end of the experiment, food and bedding were removed at 8 am and the mice have been sacrificed after 5 hours of fasting by isoflurane inhalation and cervical dislocation. All animals have been sacrificed within one hour between 1 and 2 p.m.
(§2) The daily treatment dose was 30 μL placebo or for MDP 25 μg in 30 μL placebo and for murabutide 28 μg in 30 μL placebo. Each of the compositions has been administered by pipette to the mouse's tongue. The mouse has been maintained until the composition had been swallowed completely.
(§3) To measure body length, the mice have briefly been anaesthetised with isoflurane (Piramal Healthcare, UK). The anaesthetised mouse has been held by the tail and the nose-anus length has been measured using a ruler. Relative length has been calculated as % length gain, where body length at day 21 (weaning) has been set to 100%. The length growth rate has been calculated by dividing the absolute length gain from day 21 to day 56 by the number of days (i.e. 35). Femur and tibia bones have been dissected at sacrifice, fixed in 4% paraformaldehyde—PBS overnight at 4° C., washed with PBS and preserved in 70% ethanol. Bone length has been measured using a digital caliper (Festa).
Conventional C57B1/6j laboratory mice have been bred in the Gnotobiology Laboratory for more than 10 generations. Mice have been maintained in IVC cages (Tecniplast, Italy), exposed to 12:12 h light-dark cycles, supplied with tap water and fed ad libitum with sterile diet V1124-300 (Ssniff Spezialdiäten GmbH) (irradiated −25 kGy, Bioster, Czech Republic). The mice have been mated and after delivery the litter size was reduced to 6 pups per mother. On day 21, male mice have been weaned on the experimental low-protein, low-fat diet (3.5 kcal/gram, protein: 4.1 wt %, carbohydrate: 78 wt %, fat: 2 wt %) and monitored regularly for up to 56 days after birth. Mice weaned on the low-protein, low-fat diet have been treated 5 times a week with either the placebo composition or the composition comprising mifamurtide as prepared in point 1.1 above. At the end of the experiment, the food and bedding were removed at 8 a.m. and the mice have been sacrificed after 5 hours of fasting by isoflurane inhalation and cervical dislocation. All animals have been sacrificed within one hour between 1 and 2 p.m.
Each of the compositions has been administered by pipette to the tongue of the mouse. The mouse has been held until the composition had been swallowed completely.
The tests were carried out on male mice with each of the above compositions P, A, AB and B, according to the protocol indicated in example 1, point 1.1 above (56-day period).
The daily treatment dose was 30 μL of composition P (Placebo) or 25 μg MDP alone in 30 μL of placebo (composition A), or 25 μg MDP and 2.10^8 CFU of Lactiplantibacillus plantarum strain WJL bacteria in 30 μL of placebo (composition AB) or 2.10^8 CFU of Lactiplantibacillus plantarum strain WJL bacteria in 30 μL of placebo (composition B). […]

[2] = tested on: chronically undernourished mouse model; experiment: femur and tibia bone length in chronically undernourished mouse model; conditions: at sacrifice day 56, oral, vs placebo
Procedure: as §1, §2, §3
Conventional C57B1/6j laboratory mice have been bred in the Gnotobiology Laboratory for more than 10 generations. Mice have been maintained in IVC cages (Tecniplast, Italy), exposed to 12:12 h light-dark cycles, supplied with tap water and fed ad libitum with sterile diet V1124-300 (Ssniff Spezialdiäten GmbH) (irradiated −25 kGy, Bioster, Czech Republic). The mice have been mated and after delivery the litter size was reduced to 6 pups per mother. On day 21, male mice have been weaned on the experimental low-protein, low-fat diet (3.5 kcal/gram, protein: 4.1 wt %, carbohydrate: 78 wt %, fat: 2 wt %) and monitored regularly for up to 56 days after birth. […]

IGF-1 = experiment: circulating IGF-1 level in serum, Mouse/Rat IGF-1 Quantikine ELISA; conditions: serum at day 56, oral, vs placebo
Procedure: Conventional C57B1/6j laboratory mice have been bred in the Gnotobiology Laboratory for more than 10 generations. Mice have been maintained in IVC cages (Tecniplast, Italy), exposed to 12:12 h light-dark cycles, supplied with tap water and fed ad libitum with sterile diet V1124-300 (Ssniff Spezialdiaten GmbH) (irradiated −25 kGy, Bioster, Czech Republic). The mice have been mated and after delivery, the litter size was reduced to 6 pups per mother. On day 21, male mice have been weaned on the experimental low-protein, low-fat diet (3.5 kcal/gram, protein: 4.1 wt %, carbohydrate: 78 wt %, fat: 2 wt %) and regularly monitored until 56 days after birth (adult age in mice). […]
At the end of the experiment, the blood has been collected and left to coagulate at room temperature for 2 hours. […] IGF-1 levels have been measured using the Mouse/Rat IGF-1 Quantikine ELISA kit (R&D systems) according to the manufacturer's instructions. Data have been analysed using the following statistical test: One way ANOVA with Tukey's multiple comparisons test.
Conventional C57B1/6j laboratory mice have been bred in the Gnotobiology Laboratory for more than 10 generations. […] On day 21, male mice have been weaned on the experimental low-protein, low-fat diet (3.5 kcal/gram, protein: 4.1 wt %, carbohydrate: 78 wt %, fat: 2 wt %) and monitored regularly for up to 56 days after birth. […]

[3] = Example 2, Mifamurtide 62.5 μg/day in 30 μL
[4] = Example 1, MDP 25 μg or murabutide 28 μg in 30 μL
[5] = Example 1, 5 times a week, MDP 25 μg or murabutide 28 μg in 30 μL

Row | Compound | growth rate [1, 3] | relative growth (% length gain, day 21 = 100%) [1, 3] | total height [1, 3] | skeletal growth (linear or longitudinal) [1] | size of the femur [2, 3] | size of the tibia [2, 3] | circulating IGF1 level (IGF-1; [3]) | growth rate [1, 4] | relative growth (% length gain, day 21 = 100%) [1, 4] | total height [1, 4] | femur size [2, 5] | length of the tibia [2, 5] | circulating IGF1 level (IGF-1; [5])
1 | muramyl tripeptide phosphatidyl ethanolamine [Mifamurtide] | significantly increased | significantly increased | significantly increased | positive effect | significantly increased | significantly increased | significantly increased | – | – | – | – | – | –
2 | CCCCOC(=O)[C@@H](CCC(N)=O)NC(=O)[C@H](C)NC(=O)[C@@H](C)O[C@H]1[C@H](O)[C@@H](CO)OC(O)[C@@H]1NC(C)=O (some centres unmarked) [murabutide, muramyl dipeptide butyl ester] | – | – | – | positive effect | – | – | – | significantly increased | significantly increased | significantly increased | positive trend in murabutide treatment that did not reach statistical significance | positive trend of increased growth | significantly increased

Source: patent publication US20250032575A1, “USE OF A MURAMYL PEPTIDE IN THE TREATMENT OF SKELETAL GROWTH RETARDATION” (UNIVERSITE CLAUDE BERNARD LYON 1, priority 2021, published 2025)
